Experimental data reported in patent US7629310B2, “RhoB as a suppressor of cancer cell growth, cell transformation, and metastasis” (University of South Florida, priority 2000, dated 2009).

Key:
RhoB promoter = RhoB promoter transcriptional activity in H-Ras/3T3 cells; format: cell-based; settings: treated 12 hours (FIG. 6B)
Text: The cell lysates were processed as in FIGS. 5A-5D. […] The cell lysates were processed as in FIGS. 5A-5D. […] The cell lysates were processed as in FIGS. 5A-5D. Gene Constructs and RhoB Promoter Transcriptional Activity Assay. Constitutively active H-Ras61L, K-RasV12, N-RasV12, and dominant negative […]-Ras were kind gifts from Dr. Channing Der (University of North Carolina) (Khosravi-Far, R. et al., Mol Cell Biol, 1995, 15:6443-53; Quilliam, L. A. et al., Mol Cell Biol, 1994, 14:1113-21). Wild-type RhoA and RhoB were subcloned into hemaglutinin (HA)-tagged pcDNA3 (INVITROGEN). The orientation and the sequences of these genes were confirmed by DNA sequencing facilities at the H. Lee Moffitt Cancer Center, Tampa, Fla. RhoB promoter construct pGEI was kindly provided by Dr Y. Monden (Banyu Tsukuba Research, Japan) (Nakamura et al., 1996). pCMV-β-galactosidase vector was purchased from INVITROGEN. The plasmid containing CA-, DN-PI3K, Mek and Akt were kindly provided by Dr. Julie Y. Djeu (H. Lee Moffitt Cancer and Research Institute, Tampa, Fla.) (Jiang, K. et al., Blood, 2003, 101:236-44). β-galactosidase activity and luciferase assay kits were purchased from PROMEGA Corporation, Madison, Wis. […] The RhoB promoter transcriptional activity was determined by dividing the luciferase/β-Gal values from oncogene-transfected cells by those from pcDNA3-transfected cells. […]

H-Ras/3T3 cells = experiment: Invasion through […]-coated transfilters, H-Ras/3T3 cells; format: cell-based; settings: H-Ras/3T3 cells (FIG. 9A)
Description: (§1) HRas/3T3 cells (FIG. 9A) and PANC-1 cells (FIG. 9B) were transiently transfected with pcDNA3 vector control, H-Ras61L, CA-Akt, or WT-Akt in the presence or absence of RhoA, RhoB, or pcDNA3 for 36 hours. The cells were then split and analyzed for their invading capabilities through […]-coated transfilters as described in the Materials and Methods section. PANC-1 and PC3 cells (FIG. 9C) were transiently transfected with pcDNA3, with H-Ras61L in the presence or absence of RhoA, or RhoB for 36 hours. The cells were then serum-starved for another 36 hours; the conditioned medium was collected and 20 μg protein were analyzed for MMP-2 expression by Western Blotting.
(§2) Whether RhoB can also antagonize cell invasion was evaluated. To this end, H-Ras/3T3 and PANC-1 cells were similarly transfected as above with various oncogenes along with RhoA or RhoB, then seeded onto […]-coated poly-hydrocarbonate filters mounted in the middle of a Boyden transwell apparatus as described under Methods. […] Furthermore, transfection with CA-Akt or WT-Akt enhanced invasion; and RhoB, not RhoA, inhibited this enhancement of invasion (FIGS. 9A and 9B).

PANC-1 cells = experiment: Invasion through […]-coated transfilters, PANC-1 cells; format: cell-based, human; settings: PANC-1 cells (FIG. 9B)
Description: as §1, §2

Row | Molecule | induction of RhoB promoter activity (RhoB promoter) | invasion through MATRIGEL (H-Ras/3T3 cells) | invasion through MATRIGEL (PANC-1 cells)
1 | O=c1[nH]cc(F)c(=O)[nH]1 [5-FU, 5-fluorouracil] | little effect |  | 
2 | RhoA: closely related family member sharing 86% sequence identity with RhoB; wild-type, in HA-tagged pcDNA3, transfected as control |  | invaded | invaded
